The values that follow come from patent US12492173B2, “Herbicidal substituted N-tetrazolyl aryl carboxamides” (Bayer Aktiengesellschaft, priority 2019, dated 2025).

The first test relates to Pharbitis purpurea. The test can be described thus: Pre-emergence herbicidal action, PHBPU. The format is in vivo. To be noted: dosage 320 g/ha, scored visually after 3 weeks vs untreated controls (100% = plants have died). A digest of the protocol:
(§1)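 Visual scoring after 3 weeks in the greenhouse, relative to untreated pots, gave percent activity, where 100% means dead plants and 0% equals controls. Treatment was a pre-emergence soil-surface spray of WP or EC formulations in water (600 to 800 l/ha, 0.2% wetting agent) over seeds covered in sandy loam.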
As to `CCn1nnnc1NC(=O)c1ccc(C(F)F)c(CSC)c1Cl` [Example 2-320], the “herbicidal activity PHBPU” value was determined as 80%.
As for `CCn1nnnc1NC(=O)c1ccc(I)c(C[S+](C)[O-])c1Cl` (stereo not drawn) [Example 2-363], the “herbicidal activity PHBPU” value worked out at 80%.
For `CCSCc1c(C(F)(F)F)ccc(C(=O)Nc2nnnn2C)c1SCC` [Example 1-182], the “herbicidal activity PHBPU” value amounted to 80%.
Still for that read-out and setting: the same measure for `CSCc1c(C(F)F)ccc(C(=O)Nc2nnnn2C)c1Cl` [Example 1-320]: 80%; for `CCCn1nnnc1NC(=O)c1ccc(C(F)F)c(C[S+](C)[O-])c1SC` (stereo not drawn) [Example 3-171]: 90%; for `CSc1c(C(=O)Nc2nnnn2C)ccc(C(F)F)c1C[S+](C)[O-]` (stereo not drawn) [Example 1-171]: 90%.
Turning to `Cn1nnnc1NC(=O)c1ccc(I)c(C[S+](C)[O-])c1Cl` (racemic) [Example 1-363], the “herbicidal activity PHBPU” value is given as 100%.
Still for that read-out and setting: with `Cn1nnnc1NC(=O)c1ccc(I)c(CS(C)(=O)=O)c1Cl` [Example 1-364] the figure was 90%; with `CCCn1nnnc1NC(=O)c1ccc(C(F)(F)F)c(CSCC2CC2)c1Cl` [Example 3-314], 80%.

The test system of another test is Polygonum convolvulus. Put plainly: Pre-emergence herbicidal action, POLCO. The test is classed as in vivo. To be noted: comparative experiment, 20 g of a.i./ha. A digest of the protocol:
as §1
Regarding `Cn1nnnc1NC(=O)c1ccc(I)c(CS(C)(=O)=O)c1Cl` [Example 1-364], the “Herbicidal action against POLCO” value was 90.

The same test, now with this note: dosage 320 g/ha, scored visually after 3 weeks vs untreated controls (100% = plants have died).
Take `CCn1nnnc1NC(=O)c1ccc(C(F)F)c(CSC)c1Cl` [Example 2-320]: the “herbicidal activity POLCO” value was 90%.
The same measure, in the same setting: with `CCSCc1c(C(F)(F)F)ccc(C(=O)Nc2nnnn2C)c1SCC` [Example 1-182] the figure was 100%; with `CSCc1c(C(F)F)ccc(C(=O)Nc2nnnn2C)c1Cl` [Example 1-320], 90%.
On to `CCCn1nnnc1NC(=O)c1ccc(C(F)F)c(C[S+](C)[O-])c1SC` (stereo not drawn) [Example 3-171], for which the “herbicidal activity POLCO” value is listed as 90%.
Same read-out and setting: the same measure for `CSc1c(C(=O)Nc2nnnn2C)ccc(C(F)F)c1C[S+](C)[O-]` (stereo not drawn) [Example 1-171]: 100%; for `Cn1nnnc1NC(=O)c1ccc(I)c(C[S+](C)[O-])c1Cl` (racemic) [Example 1-363]: 90%; for `Cn1nnnc1NC(=O)c1ccc(I)c(CS(C)(=O)=O)c1Cl` [Example 1-364]: 100%.

The next test deals with Polygonum convolvulus. Put plainly: Post-emergence herbicidal action, POLCO. The conditions noted are these: Dosage 80 g/ha. The test is classed as in vivo. A digest of the protocol: (§2)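 Sandy loam, greenhouse; one-leaf stage (2–3 wk after sowing); foliar spray of WP or EC, 600–800 l/ha water + 0.2% wetter; visual rating at ~3 wk vs untreated, % effect.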
As to `CCn1nnnc1NC(=O)c1ccc(C(F)F)c(CSC)c1Cl` [Example 2-320], the “herbicidal action POLCO” value came out at 100.
With `CCn1nnnc1NC(=O)c1ccc(I)c(C[S+](C)[O-])c1Cl` (stereo not drawn) [Example 2-363], the “herbicidal action POLCO” value is 100.
Same read-out and setting: the same measure for `CSCc1c(C(F)F)ccc(C(=O)Nc2nnnn2C)c1Cl` [Example 1-320]: 80.
Same read-out and setting: the same measure for `CCCn1nnnc1NC(=O)c1ccc(C(F)F)c(C[S+](C)[O-])c1SC` (stereo not drawn) [Example 3-171]: 90.
Take `CSc1c(C(=O)Nc2nnnn2C)ccc(C(F)F)c1C[S+](C)[O-]` (stereo not drawn) [Example 1-171]: the “herbicidal action POLCO” value is given as 100.
Regarding `Cn1nnnc1NC(=O)c1ccc(I)c(CS(C)(=O)=O)c1Cl` [Example 1-364], the “herbicidal action POLCO” value worked out at 100.

The same test, now with this note: post-emergence, dosage 80 g/ha.
As to `CCCn1nnnc1NC(=O)c1ccc(C(F)(F)F)c(CSCC2CC2)c1Cl` [Example 3-314], the “herbicidal action POLCO” value is recorded as 100%.

The next test relates to Matricaria inodora. The test can be described thus: Post-emergence herbicidal action, MATIN. To be noted: Dosage 80 g/ha. The format is in vivo. Set-up: key: % herbicidal action vs untreated; 100 = plants died, 0 = like control. A digest of the protocol: as §2
As for `CCn1nnnc1NC(=O)c1ccc(I)c(C[S+](C)[O-])c1Cl` (stereo not drawn) [Example 2-363], the “herbicidal action MATIN” value was 100.
In the case of `CCSCc1c(C(F)(F)F)ccc(C(=O)Nc2nnnn2C)c1SCC` [Example 1-182], the “herbicidal action MATIN” value was determined as 90.
The same measure, in the same setting: with `CCCn1nnnc1NC(=O)c1ccc(C(F)F)c(C[S+](C)[O-])c1SC` (stereo not drawn) [Example 3-171] the figure was 90; with `CSc1c(C(=O)Nc2nnnn2C)ccc(C(F)F)c1C[S+](C)[O-]` (stereo not drawn) [Example 1-171], 90.
Still for that read-out and setting: with `Cn1nnnc1NC(=O)c1ccc(I)c(CS(C)(=O)=O)c1Cl` [Example 1-364] the figure was 100.

The test is the same for the next values; noted with them: post-emergence, dosage 80 g/ha.
Consider `Cn1nnnc1NC(=O)c1ccc(I)c(C[S+](C)[O-])c1Cl` (racemic) [Example 1-363], for which the “herbicidal action MATIN” value is 100%.
Take `CCCn1nnnc1NC(=O)c1ccc(C(F)(F)F)c(CSCC2CC2)c1Cl` [Example 3-314]: the “herbicidal action MATIN” value amounted to 100%.

A further test relates to Stellaria media. Put plainly: Post-emergence herbicidal action, STEME. The conditions noted are these: Dosage 80 g/ha. Set-up: key: % herbicidal action vs untreated; 100 = plants died, 0 = like control. The format is in vivo. A digest of the protocol:
as §2
In the case of `CCn1nnnc1NC(=O)c1ccc(C(F)F)c(CSC)c1Cl` [Example 2-320], the “herbicidal action STEME” value worked out at 100.
On the same count and under the same terms, the same measure for `CCn1nnnc1NC(=O)c1ccc(I)c(C[S+](C)[O-])c1Cl` (stereo not drawn) [Example 2-363]: 100; for `CCSCc1c(C(F)(F)F)ccc(C(=O)Nc2nnnn2C)c1SCC` [Example 1-182]: 100; for `CSCc1c(C(F)F)ccc(C(=O)Nc2nnnn2C)c1Cl` [Example 1-320]: 100.
Consider `CCCn1nnnc1NC(=O)c1ccc(C(F)F)c(C[S+](C)[O-])c1SC` (stereo not drawn) [Example 3-171], for which the “herbicidal action STEME” value turned out to be 100.
For `CSc1c(C(=O)Nc2nnnn2C)ccc(C(F)F)c1C[S+](C)[O-]` (stereo not drawn) [Example 1-171], the “herbicidal action STEME” value was 100.
In the case of `Cn1nnnc1NC(=O)c1ccc(I)c(CS(C)(=O)=O)c1Cl` [Example 1-364], the “herbicidal action STEME” value amounted to 100.

Staying with this test, now noted: comparative experiment, post-emergence, 5 g of a.i./ha.
With `CCSCc1c(C(F)(F)F)ccc(C(=O)Nc2nnnn2C)c1SCC` [Example 1-182], the “Herbicidal action against STEME” value was 90.
As to `CSCc1c(C(F)F)ccc(C(=O)Nc2nnnn2C)c1Cl` [Example 1-320], the “Herbicidal action against STEME” value was 100.

The test is the same for the next values; noted with them: post-emergence, dosage 80 g/ha.
Regarding `Cn1nnnc1NC(=O)c1ccc(I)c(C[S+](C)[O-])c1Cl` (racemic) [Example 1-363], the “herbicidal action STEME” value amounted to 100%.
The same measure, in the same setting: the same measure for `CCCn1nnnc1NC(=O)c1ccc(C(F)(F)F)c(CSCC2CC2)c1Cl` [Example 3-314]: 100%.

A further test concerns Avena fatua. Put plainly: Post-emergence herbicidal action, AVEFA. The format is in vivo. Set-up: key: % herbicidal action vs untreated; 100 = plants died, 0 = like control. The conditions noted are these: Dosage 80 g/ha. A digest of the protocol:
as §2
Turning to `CCn1nnnc1NC(=O)c1ccc(C(F)F)c(CSC)c1Cl` [Example 2-320], the “herbicidal action AVEFA” value is on record as 90.
Consider `CCn1nnnc1NC(=O)c1ccc(I)c(C[S+](C)[O-])c1Cl` (stereo not drawn) [Example 2-363], for which the “herbicidal action AVEFA” value worked out at 90.
The same measure, in the same setting: with `CCSCc1c(C(F)(F)F)ccc(C(=O)Nc2nnnn2C)c1SCC` [Example 1-182] the figure was 80; with `CSCc1c(C(F)F)ccc(C(=O)Nc2nnnn2C)c1Cl` [Example 1-320], 100.

The test is the same for the next values; noted with them: post-emergence, dosage 80 g/ha.
Take `Cn1nnnc1NC(=O)c1ccc(I)c(C[S+](C)[O-])c1Cl` (racemic) [Example 1-363]: the “herbicidal action AVEFA” value was 100%.
The same measure, in the same setting: the same measure for `CCCn1nnnc1NC(=O)c1ccc(C(F)(F)F)c(CSCC2CC2)c1Cl` [Example 3-314]: 100%.

In the next test the test system is Amaranthus retroflexus. Put plainly: Pre-emergence herbicidal action, AMARE. The test is classed as in vivo. To be noted: comparative experiment, 20 g of a.i./ha. Set-up: key to Herbicidal action against AMARE: % activity: 100 = plants have died, 0 = like control plants. A digest of the protocol:
as §1
For the molecule `CCSCc1c(C(F)(F)F)ccc(C(=O)Nc2nnnn2C)c1SCC` [Example 1-182], the “Herbicidal action against AMARE” value was 70.
The same measure, in the same setting: with `Cn1nnnc1NC(=O)c1ccc(I)c(C[S+](C)[O-])c1Cl` (racemic) [Example 1-363] the figure was 100; with `Cn1nnnc1NC(=O)c1ccc(I)c(CS(C)(=O)=O)c1Cl` [Example 1-364], 100.

The same test, now with this note: dosage 320 g/ha, scored visually after 3 weeks vs untreated controls (100% = plants have died).
With `CCn1nnnc1NC(=O)c1ccc(C(F)F)c(CSC)c1Cl` [Example 2-320], the “herbicidal activity AMARE” value was 100%.
Same read-out and setting: the same measure for `CCn1nnnc1NC(=O)c1ccc(I)c(C[S+](C)[O-])c1Cl` (stereo not drawn) [Example 2-363]: 100%; for `CCSCc1c(C(F)(F)F)ccc(C(=O)Nc2nnnn2C)c1SCC` [Example 1-182]: 100%.
On the same count and under the same terms, the same measure for `CSCc1c(C(F)F)ccc(C(=O)Nc2nnnn2C)c1Cl` [Example 1-320]: 90%.
The same measure, in the same setting: the same measure for `CCCn1nnnc1NC(=O)c1ccc(C(F)F)c(C[S+](C)[O-])c1SC` (stereo not drawn) [Example 3-171]: 100%; for `CSc1c(C(=O)Nc2nnnn2C)ccc(C(F)F)c1C[S+](C)[O-]` (stereo not drawn) [Example 1-171]: 100%; for `Cn1nnnc1NC(=O)c1ccc(I)c(C[S+](C)[O-])c1Cl` (racemic) [Example 1-363]: 100%.
On to `Cn1nnnc1NC(=O)c1ccc(I)c(CS(C)(=O)=O)c1Cl` [Example 1-364], for which the “herbicidal activity AMARE” value was 100%.
Same read-out and setting: the same measure for `CCCn1nnnc1NC(=O)c1ccc(C(F)(F)F)c(CSCC2CC2)c1Cl` [Example 3-314]: 100%.
